Laboratory results as given in ChEMBL document CHEMBL1127167, “Synthesis and in vitro acetylcholinesterase inhibitory activity of some 1-substituted analogues of velnacrine” (Bioorg Med Chem Lett, 1993).

Biological target: T1, Acetylcholinesterase (Rattus norvegicus, UniProt P37136)
T1 sequence (P37136 whole entry): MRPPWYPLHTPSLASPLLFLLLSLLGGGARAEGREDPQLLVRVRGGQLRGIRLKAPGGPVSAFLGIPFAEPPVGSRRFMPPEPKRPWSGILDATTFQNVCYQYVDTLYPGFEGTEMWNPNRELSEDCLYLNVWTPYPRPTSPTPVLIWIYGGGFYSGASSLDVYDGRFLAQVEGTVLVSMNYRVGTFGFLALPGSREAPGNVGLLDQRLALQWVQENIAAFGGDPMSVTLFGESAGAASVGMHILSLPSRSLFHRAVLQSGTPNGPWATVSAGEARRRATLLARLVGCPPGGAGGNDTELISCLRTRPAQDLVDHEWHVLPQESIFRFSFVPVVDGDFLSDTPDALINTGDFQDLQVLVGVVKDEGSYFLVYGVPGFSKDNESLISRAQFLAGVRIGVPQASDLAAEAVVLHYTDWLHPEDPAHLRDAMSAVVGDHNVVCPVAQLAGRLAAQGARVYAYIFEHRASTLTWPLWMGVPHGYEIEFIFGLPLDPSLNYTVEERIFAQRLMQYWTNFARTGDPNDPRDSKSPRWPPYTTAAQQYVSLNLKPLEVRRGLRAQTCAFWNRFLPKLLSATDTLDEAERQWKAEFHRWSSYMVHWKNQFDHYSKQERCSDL
Test: Inhibition of acetylcholinesterase from rat striatal tissue
Type: tissue-based, Striatum

Row | SMILES | IC50
1 | Nc1c2c(nc3ccccc13)CCCC2Nn1cccc1 (stereo unspecified) | 8.16 µM
2 | Nc1c2c(nc3ccccc13)CCCC2c1cccs1 (stereo unspecified) | 0.49 µM
3 | [N-]=[N+]=NC1CCCc2nc3ccccc3c(N)c21 (stereo unspecified) | 11.8 µM
4 | CCNC1CCCc2nc3ccccc3c(N)c21 (stereo unspecified) | 4.79 µM
5 | CCOC1CCCc2nc3ccccc3c(N)c21 (stereo unspecified) | 0.298 µM
6 | Nc1c2c(nc3ccccc13)CCCC2N1CCN(c2ccccc2)CC1 (stereo unspecified) | > 100 µM
7 | Nc1c2c(nc3ccccc13)CCCC2N (stereo unspecified) | 8.59 µM
8 | CCCCOC1CCCc2nc3ccccc3c(N)c21 (stereo unspecified) | 1.9 µM
9 | Nc1c2c(nc3ccccc13)CCCC2N1CCOCC1 (stereo unspecified) | > 100 µM
10 | COc1ccc(CNC2CCCc3nc4ccccc4c(N)c32)cc1OC (stereo unspecified) | 38.4 µM
11 | Nc1c2c(nc3ccccc13)CCCC2N1CCC(c2ccccc2)CC1 (stereo unspecified) | > 100 µM
12 | CCCNC1CCCc2nc3ccccc3c(N)c21 (stereo unspecified) | 12.5 µM
13 | Nc1c2c(nc3ccccc13)CCCC2NCCc1ccccc1 (stereo unspecified) | 18.6 µM
14 | CC(=O)NC1CCCc2nc3ccccc3c(N)c21 (stereo unspecified) | 64.9 µM
15 | CCCCNC1CCCc2nc3ccccc3c(N)c21 (stereo unspecified) | 48.8 µM
16 | Nc1c2c(nc3ccccc13)CCCC2N1CCCC1 (stereo unspecified) | 18 µM
17 | c1ccc(C2=NC3CCCc4nc5ccccc5c(c43)N2)cc1 (stereo unspecified) | > 100 µM
18 | COc1ccc(C2CCCc3nc4ccccc4c(N)c32)c(OC)c1 (stereo unspecified) | 4.82 µM
19 | CC1=NC2CCCc3nc4ccccc4c(c32)N1 (stereo unspecified) | > 100 µM
20 | CN1CCN(C2CCCc3nc4ccccc4c(N)c32)CC1 (stereo unspecified) | > 100 µM
21 | Nc1c2c(nc3ccccc13)CCCC2NCc1ccccc1 (stereo unspecified) | 20.1 µM
22 | CCCOC1CCCc2nc3ccccc3c(N)c21 (stereo unspecified) | 0.193 µM
23 | Nc1c2c(nc3ccccc13)CCCC2N1CCCCC1 (stereo unspecified) | 8.4 µM
24 | CCCCCC(=O)NC1CCCc2nc3ccccc3c(N)c21 (stereo unspecified) | 51.8 µM
25 | COC1CCCc2nc3ccccc3c(N)c21 (stereo unspecified) | 4.74 µM
26 | Nc1c2c(nc3ccccc13)CCCC2O (stereo unspecified) [VELNACRINE] | 3.64 µM
